Experimental data taken from ChEMBL document CHEMBL3621100, “Discovery of Novel Class I Histone Deacetylase Inhibitors with Promising in Vitro and in Vivo Antitumor Activities” (J Med Chem, 2015).

Experiments:
Histone deacetylase 11 = target: T1, Histone deacetylase 11 (Homo sapiens, UniProt Q96DB2); experiment: Inhibition of recombinant human HDAC11 after 60 mins by fluorescence assay
T1 sequence (Q96DB2 whole entry): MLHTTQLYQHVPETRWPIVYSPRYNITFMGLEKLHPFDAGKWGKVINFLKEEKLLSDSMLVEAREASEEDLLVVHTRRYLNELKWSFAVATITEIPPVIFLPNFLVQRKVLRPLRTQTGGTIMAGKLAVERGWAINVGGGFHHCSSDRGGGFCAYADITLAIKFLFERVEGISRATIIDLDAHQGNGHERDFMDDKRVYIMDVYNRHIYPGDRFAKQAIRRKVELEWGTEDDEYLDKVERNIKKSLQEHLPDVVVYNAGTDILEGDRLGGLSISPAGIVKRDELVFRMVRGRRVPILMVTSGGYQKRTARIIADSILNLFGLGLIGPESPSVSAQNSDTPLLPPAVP

Histone deacetylase 8 = target: T2, Histone deacetylase 8 (Homo sapiens, UniProt Q9BY41); experiment: Inhibition of recombinant human HDAC8 after 60 mins by fluorescence assay
T2 sequence (Q9BY41 whole entry): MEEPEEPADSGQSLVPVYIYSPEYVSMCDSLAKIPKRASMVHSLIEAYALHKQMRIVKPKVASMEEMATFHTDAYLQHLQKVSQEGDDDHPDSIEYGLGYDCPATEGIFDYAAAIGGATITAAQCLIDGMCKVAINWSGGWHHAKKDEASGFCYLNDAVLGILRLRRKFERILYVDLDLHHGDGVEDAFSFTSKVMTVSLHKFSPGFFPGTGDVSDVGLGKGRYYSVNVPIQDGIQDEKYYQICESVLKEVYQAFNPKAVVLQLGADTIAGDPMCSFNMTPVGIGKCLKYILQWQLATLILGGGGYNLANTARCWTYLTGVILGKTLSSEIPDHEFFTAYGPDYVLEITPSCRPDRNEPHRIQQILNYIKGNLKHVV

Histone deacetylase 7 = target: T3, Histone deacetylase 7 (Homo sapiens, UniProt Q8WUI4); experiment: Inhibition of recombinant human HDAC7 after 60 mins by fluorescence assay
T3 sequence (Q8WUI4 whole entry): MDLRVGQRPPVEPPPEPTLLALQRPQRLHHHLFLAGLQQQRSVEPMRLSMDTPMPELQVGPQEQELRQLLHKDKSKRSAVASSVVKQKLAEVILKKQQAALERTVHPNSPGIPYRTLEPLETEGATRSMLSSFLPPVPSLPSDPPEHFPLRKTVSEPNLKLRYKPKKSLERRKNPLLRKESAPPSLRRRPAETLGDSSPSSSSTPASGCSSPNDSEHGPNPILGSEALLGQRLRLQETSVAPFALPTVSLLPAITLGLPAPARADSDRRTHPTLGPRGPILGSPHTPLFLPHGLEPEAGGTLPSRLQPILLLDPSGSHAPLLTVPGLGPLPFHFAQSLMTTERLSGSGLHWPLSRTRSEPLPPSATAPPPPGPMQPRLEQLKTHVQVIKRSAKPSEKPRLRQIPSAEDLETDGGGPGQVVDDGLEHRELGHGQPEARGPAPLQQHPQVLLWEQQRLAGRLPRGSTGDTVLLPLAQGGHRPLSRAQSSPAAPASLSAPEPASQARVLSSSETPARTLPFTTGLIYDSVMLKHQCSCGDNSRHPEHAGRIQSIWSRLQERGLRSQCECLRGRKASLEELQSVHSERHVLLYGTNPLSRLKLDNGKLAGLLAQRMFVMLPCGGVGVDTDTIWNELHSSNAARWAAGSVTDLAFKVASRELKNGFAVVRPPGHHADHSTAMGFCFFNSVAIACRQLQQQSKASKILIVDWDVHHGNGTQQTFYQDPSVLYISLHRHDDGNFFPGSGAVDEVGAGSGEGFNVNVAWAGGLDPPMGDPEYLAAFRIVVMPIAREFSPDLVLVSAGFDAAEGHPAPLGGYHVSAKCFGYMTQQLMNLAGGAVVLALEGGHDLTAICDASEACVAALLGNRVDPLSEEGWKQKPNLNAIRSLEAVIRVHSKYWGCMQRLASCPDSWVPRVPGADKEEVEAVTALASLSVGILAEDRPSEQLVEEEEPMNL

[1] = target: T4, Polyamine deacetylase HDAC10 (Homo sapiens, UniProt Q969S8); experiment: Inhibition of recombinant human HDAC10 after 60 mins by fluorescence assay
T4 sequence (Q969S8 whole entry): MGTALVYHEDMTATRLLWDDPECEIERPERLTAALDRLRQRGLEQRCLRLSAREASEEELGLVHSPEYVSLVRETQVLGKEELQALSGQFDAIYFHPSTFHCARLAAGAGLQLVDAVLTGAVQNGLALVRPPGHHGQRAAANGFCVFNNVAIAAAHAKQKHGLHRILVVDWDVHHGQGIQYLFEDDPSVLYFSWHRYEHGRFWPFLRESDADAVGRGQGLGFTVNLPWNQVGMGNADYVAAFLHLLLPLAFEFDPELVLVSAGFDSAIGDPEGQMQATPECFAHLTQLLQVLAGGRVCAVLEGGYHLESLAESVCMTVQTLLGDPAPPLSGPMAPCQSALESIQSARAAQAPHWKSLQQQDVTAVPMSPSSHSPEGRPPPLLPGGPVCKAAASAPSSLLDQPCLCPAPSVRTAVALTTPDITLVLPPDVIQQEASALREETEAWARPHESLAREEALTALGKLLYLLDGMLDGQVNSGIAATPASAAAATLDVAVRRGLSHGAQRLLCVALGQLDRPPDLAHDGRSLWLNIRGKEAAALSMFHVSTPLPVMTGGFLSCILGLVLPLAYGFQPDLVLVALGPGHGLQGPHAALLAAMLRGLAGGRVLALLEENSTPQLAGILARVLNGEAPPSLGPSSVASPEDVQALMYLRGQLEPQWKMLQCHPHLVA

Histone deacetylase 4 = Histone deacetylase 4 (Homo sapiens, UniProt P56524); experiment: Inhibition of recombinant human HDAC4 after 60 mins by fluorescence assay
Histone deacetylase 4, sequence (P56524 whole entry): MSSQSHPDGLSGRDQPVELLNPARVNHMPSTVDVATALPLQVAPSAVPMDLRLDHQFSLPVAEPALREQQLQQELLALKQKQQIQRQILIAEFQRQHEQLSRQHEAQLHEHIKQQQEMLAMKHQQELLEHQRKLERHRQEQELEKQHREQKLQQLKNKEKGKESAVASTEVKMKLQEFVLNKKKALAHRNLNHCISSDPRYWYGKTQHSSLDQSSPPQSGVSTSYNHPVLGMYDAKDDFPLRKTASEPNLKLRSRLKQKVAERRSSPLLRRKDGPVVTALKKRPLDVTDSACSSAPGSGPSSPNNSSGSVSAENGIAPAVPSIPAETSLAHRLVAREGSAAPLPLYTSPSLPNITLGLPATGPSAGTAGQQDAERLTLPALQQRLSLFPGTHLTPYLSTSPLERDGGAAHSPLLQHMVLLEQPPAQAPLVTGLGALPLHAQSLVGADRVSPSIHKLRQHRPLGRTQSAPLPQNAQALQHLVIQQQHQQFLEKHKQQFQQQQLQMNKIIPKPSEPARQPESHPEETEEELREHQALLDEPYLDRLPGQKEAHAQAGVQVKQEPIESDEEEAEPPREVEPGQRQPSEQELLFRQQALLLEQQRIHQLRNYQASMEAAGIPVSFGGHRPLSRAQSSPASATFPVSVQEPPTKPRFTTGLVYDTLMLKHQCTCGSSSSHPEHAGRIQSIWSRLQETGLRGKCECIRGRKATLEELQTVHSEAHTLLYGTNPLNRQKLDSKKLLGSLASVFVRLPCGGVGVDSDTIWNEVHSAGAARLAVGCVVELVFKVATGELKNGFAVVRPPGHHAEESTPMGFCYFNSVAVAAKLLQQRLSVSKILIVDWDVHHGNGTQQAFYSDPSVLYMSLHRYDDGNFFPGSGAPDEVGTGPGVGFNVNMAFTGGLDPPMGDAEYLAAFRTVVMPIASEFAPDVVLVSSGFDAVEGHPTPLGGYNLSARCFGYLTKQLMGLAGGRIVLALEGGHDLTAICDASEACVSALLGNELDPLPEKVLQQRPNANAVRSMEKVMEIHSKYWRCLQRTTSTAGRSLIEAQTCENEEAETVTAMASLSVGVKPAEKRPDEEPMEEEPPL

Histone deacetylase 3 = Histone deacetylase 3 (Homo sapiens, UniProt O15379); experiment: Inhibition of recombinant human HDAC3 after 60 mins by fluorescence assay
Histone deacetylase 3, sequence (O15379 whole entry): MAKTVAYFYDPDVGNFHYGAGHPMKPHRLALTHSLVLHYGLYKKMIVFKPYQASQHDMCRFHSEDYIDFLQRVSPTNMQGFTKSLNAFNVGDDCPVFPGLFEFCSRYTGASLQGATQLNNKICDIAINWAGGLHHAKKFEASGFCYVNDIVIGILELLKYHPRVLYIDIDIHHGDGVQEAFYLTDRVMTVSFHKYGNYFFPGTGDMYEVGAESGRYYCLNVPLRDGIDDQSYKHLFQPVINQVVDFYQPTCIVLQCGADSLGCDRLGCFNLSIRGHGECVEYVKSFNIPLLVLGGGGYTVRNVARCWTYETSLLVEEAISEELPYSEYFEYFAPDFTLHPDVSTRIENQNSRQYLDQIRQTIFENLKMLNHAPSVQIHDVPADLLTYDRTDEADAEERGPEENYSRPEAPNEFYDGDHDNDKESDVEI

Histone deacetylase 5 = Histone deacetylase 5 (Homo sapiens, UniProt Q9UQL6); experiment: Inhibition of recombinant human HDAC5 after 60 mins by fluorescence assay
Histone deacetylase 5, sequence (Q9UQL6 whole entry): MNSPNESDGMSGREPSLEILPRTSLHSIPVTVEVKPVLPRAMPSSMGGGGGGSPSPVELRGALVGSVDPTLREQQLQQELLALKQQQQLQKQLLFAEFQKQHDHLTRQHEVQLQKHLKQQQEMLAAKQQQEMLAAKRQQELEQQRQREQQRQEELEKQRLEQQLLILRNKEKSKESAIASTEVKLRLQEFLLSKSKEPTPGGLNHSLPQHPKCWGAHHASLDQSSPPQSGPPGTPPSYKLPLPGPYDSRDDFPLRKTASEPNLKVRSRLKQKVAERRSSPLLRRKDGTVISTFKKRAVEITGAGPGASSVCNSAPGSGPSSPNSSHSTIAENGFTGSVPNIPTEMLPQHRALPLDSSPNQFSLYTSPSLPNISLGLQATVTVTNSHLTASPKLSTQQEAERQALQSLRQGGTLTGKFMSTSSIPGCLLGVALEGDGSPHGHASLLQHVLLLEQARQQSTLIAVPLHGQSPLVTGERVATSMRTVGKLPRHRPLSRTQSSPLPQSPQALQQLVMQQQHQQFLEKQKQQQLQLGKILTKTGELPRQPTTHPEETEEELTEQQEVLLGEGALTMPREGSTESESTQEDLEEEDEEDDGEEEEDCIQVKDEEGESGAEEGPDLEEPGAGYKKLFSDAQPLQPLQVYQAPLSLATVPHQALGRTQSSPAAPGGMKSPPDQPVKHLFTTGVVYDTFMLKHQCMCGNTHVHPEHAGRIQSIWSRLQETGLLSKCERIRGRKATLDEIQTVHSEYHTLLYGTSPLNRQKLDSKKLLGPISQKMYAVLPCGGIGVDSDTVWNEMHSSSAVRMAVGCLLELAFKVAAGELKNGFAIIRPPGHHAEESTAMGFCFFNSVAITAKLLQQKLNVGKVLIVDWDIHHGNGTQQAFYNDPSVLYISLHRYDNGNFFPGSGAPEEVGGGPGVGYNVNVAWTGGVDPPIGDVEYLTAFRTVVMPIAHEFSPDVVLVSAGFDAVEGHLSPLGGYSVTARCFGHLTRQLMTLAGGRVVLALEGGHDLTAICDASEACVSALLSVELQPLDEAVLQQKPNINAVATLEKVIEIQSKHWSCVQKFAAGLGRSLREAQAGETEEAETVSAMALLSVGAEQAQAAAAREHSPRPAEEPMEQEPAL

DU-145 = experiment: Antiproliferative activity against human DU145 cells after 72 hrs by CCK8 assay; type: functional; conditions: Homo sapiens, DU-145, 72 h
[2] = Antiproliferative activity against human WI38 cells after 72 hrs by CCK8 assay; type: cell-based, WI-38
[3] = Antiproliferative activity against human MOLT4 cells after 72 hrs by CCK8 assay; type: functional, MOLT-4; conditions: Homo sapiens, MOLT-4, 72 h

## C/C=C1\NC(=O)c2csc(n2)[C@@H](C(C)C)NC(=O)C[C@@H](/C=C/CCS)OC(=O)[C@H](C(C)C)NC1=O
Histone deacetylase 11
  IC50: > 10000 nM
Histone deacetylase 8
  IC50: 2550 nM
Histone deacetylase 7
  IC50: > 10000 nM
[1]
  IC50: 138 nM
Histone deacetylase 4
  IC50: > 10000 nM
Histone deacetylase 3
  IC50: 9.77 nM
Histone deacetylase 5
  IC50: > 10000 nM

## C/C=C1\NC(=O)c2csc(n2)CNC(=O)C[C@@H](/C=C/CCSC(C)=O)OC(=O)[C@H](C(C)C)NC1=O
Histone deacetylase 11
  IC50: > 10000 nM
Histone deacetylase 8
  IC50: > 10000 nM
DU-145
  GI50: 11 nM
Histone deacetylase 7
  IC50: > 10000 nM
[1]
  IC50: 751 nM
Histone deacetylase 4
  IC50: > 10000 nM
[2]
  GI50 at 72 h: 258 nM
[3]
  GI50: 7.22 nM
Histone deacetylase 3
  IC50: 73 nM
Histone deacetylase 5
  IC50: > 10000 nM

## C/C=C1\NC(=O)c2csc(n2)CNC(=O)C[C@@H](/C=C/CCS)OC(=O)[C@H](C(C)C)NC1=O
Histone deacetylase 11
  IC50: > 10000 nM
Histone deacetylase 8
  IC50: 3550 nM
Histone deacetylase 7
  IC50: > 10000 nM
[1]
  IC50: 37.4 nM
Histone deacetylase 4
  IC50: > 10000 nM
Histone deacetylase 3
  IC50: 7.67 nM
Histone deacetylase 5
  IC50: > 10000 nM

## C/C=C1\NC(=O)c2csc(n2)CNC(=O)C[C@@H](/C=C/CCSC(=O)CCCCCCC)OC(=O)[C@H](C(C)C)NC1=O
Histone deacetylase 11
  IC50: > 10000 nM
Histone deacetylase 8
  IC50: > 10000 nM
DU-145
  GI50: 6.99 nM
Histone deacetylase 7
  IC50: > 10000 nM
[1]
  IC50: 1930 nM
Histone deacetylase 4
  IC50: > 10000 nM
[2]
  GI50 at 72 h: 157 nM
[3]
  GI50: 5.87 nM
Histone deacetylase 3
  IC50: 1680 nM
Histone deacetylase 5
  IC50: > 10000 nM

## C/C=C1\NC(=O)c2csc(n2)[C@@H](C(C)C)NC(=O)C[C@@H](/C=C/CCSC(=O)CCCCCCC)OC(=O)[C@H](C(C)C)NC1=O
Histone deacetylase 11
  IC50: > 10000 nM
Histone deacetylase 8
  IC50: > 10000 nM
DU-145
  GI50: 20.5 nM
Histone deacetylase 7
  IC50: > 10000 nM
[1]
  IC50: 395 nM
Histone deacetylase 4
  IC50: > 10000 nM
[2]
  GI50 at 72 h: 561 nM
[3]
  GI50: 22 nM
Histone deacetylase 3
  IC50: 3150 nM
Histone deacetylase 5
  IC50: > 10000 nM
